The text below walks through data of patent US4118561A, “7-(Substituted)-7H-pyrrolo[3,2-f]quinazoline-1,3-diamines” (priority 1977, dated 1978).

Molecules are shown by their SMILES. Values after ≈ are worked out from the molar mass of the structure shown. Like-named read-outs stand apart in the source and are kept apart here.

One data set has as its system K. pneumoniae 10031. Kind of data set: In vitro antibacterial activity (MIC), K. pneumoniae 10031. Conditions: Klebsiella pneumoniae, 10031, 18 h.
The subject of another data set is P. cynomolgi. Kind of data set: Activity against P. cynomolgi infections in Rhesus monkeys. To be noted: Plasmodium cynomolgi, in Macaca mulatta, 168 h. It is filed as in vivo, P. cynomolgi (infected Rhesus monkeys).
The next data set has as its system S. aureus Smith. Nature of the data set: In vitro antibacterial activity (MIC), S. aureus Smith. Conditions: Staphylococcus aureus, 18 h.
A further data set has as its system N. catarrhalis 8193. Kind of data set: In vitro antibacterial activity (MIC), N. catarrhalis 8193. Conditions: 18 h.
Another data set has as its system S. aureus 53-180. Kind of data set: In vitro antibacterial activity (MIC), S. aureus 53-180. Conditions: Staphylococcus aureus, 53180, 18 h.
The subject of data set [1] is lymphocytic leukemia P-388. Nature of the data set: Activity in mice against lymphocytic leukemia P-388. It is filed as in vivo. Conditions: Mus musculus, P388, ip, read-out: T/C.
A further data set concerns P. vulgaris 6896. Nature of the data set: In vitro antibacterial activity (MIC), P. vulgaris 6896. To be noted: Proteus vulgaris, 6896, 18 h.
For a further data set, the system named is S. paratyphi 11737. Nature of the data set: In vitro antibacterial activity (MIC), S. paratyphi 11737. To be noted: Salmonella enterica, 18 h. It is filed as cell-based.
The next data set deals with E. coli 9637. Kind of data set: In vitro antibacterial activity (MIC), E. coli 9637. Conditions: Escherichia coli, 9637, 18 h.
A further data set concerns Proteus mirabilis 190. Nature of the data set: In vivo antibacterial synergism (mouse), Proteus mirabilis 190. Set-up: species or system Proteus mirabilis (infected mice, CD-1). Here is the method: The test agents are weighed, suspended in 0.5% aqueous carboxymethyl cellulose, homogenized (glass tissue grinder) and diluted according to the design of the experiment. Mice (male, 18±1 g., CD-1 strain) are pre-weighed, pooled, infected at random intraperitoneally with a 0.5 ml. standardized suspension (LD95 ±5%) of the bacterial organism in 5% gastric mucin and treated at random with single doses of the test agents either at the time of infection or six hours after infecting. The treated groups consist of ten mice per dosage level. Deaths are recorded daily for 14 days and the PD50 (mice are treated at time of infection) and CD50 (mice are treated six hours after infecting) values are calculated by the method of Reed and Muench [Amer. J. Hyg., 27, 493 (1938)].

The nature of data set [2]: Antimalarial blood schizonticidal test in mice. It is filed as in vivo, Plasmodium berghei (infected ICR/HA Swiss mice). Set-up: ΔMST (increase in mean survival time): unit: days. To be noted: mouse, in vivo, sc, single dose, read-out: Highest Non-Lethal Dose. In short, it runs like this: (§1)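 Single s.c. doses (peanut oil vehicle, graded levels) given 72 h after i.p. inoculation of young Swiss mice with P. berghei KBG 173 blood (4 × 10^7 parasitized cells). Activity judged by cures (alive at 60 days) or significant mean survival gain over untreated controls, without drug-related deaths.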

The subject of data set [3] is Plasmodium berghei KBG 173. Kind of data set: Antimalarial blood schizonticidal test in mice. It is filed as in vivo, Plasmodium berghei (infected ICR/HA Swiss mice). Set-up: ΔMST (increase in mean survival time): unit: days. To be noted: for ED100 / minimal effective dose: Plasmodium berghei, sc, single dose; for ED100: read-out: Lowest Dose Curing All Mice; for minimal effective dose: read-out: Min. Curing Dose; for Cure/Treat at Min. Curing Dose: at the Min. Curing Dose. Summed up:
as §1

Another data set concerns mice. Kind of data set: Acute toxicity in mice, i.p. single dose. It is filed as in vivo, Charles River COBS CD Strain Albino mice, male. Here is the method:
(§2) Single doses of 7-(phenylmethyl)-7H-pyrrolo[3,2-f]-quinazoline-1,3-diamine (active moiety) were intraperitoneally administered in 0.5% carboxymethylcellulose at a constant dose volume of 10 ml./kg., to groups of 10 mice/dose level. (Charles River COBS CD Strain Albino mice, male, weight 21.0-25.29.) Daily observations were made on all mice for the duration of experiment (14 days). […] (95% confidence limits of 48.6-93.4) all deaths occurred 4-5 days post-drug-administration.
(§3) These effects lasted up to 6 days in the low dose animals and 14 days in those animals having received the highest dose. All mice alive on day 14 were sacrificed and necropsied.

The nature of data set [4]: Acute toxicity in mice, i.p. single dose. To be noted: mouse, in vivo, ip; mice, single dose, 14 days. Type of data set: in vivo, Charles River COBS CD Strain Albino mice, male. On the procedure:
as §2, §3

The test system of data set [5] is strains of P. berghei resistant to chloroquine, sulfones, cycloguanil, and pyrimethamine. Nature of the data set: Activity against resistant strains of P. berghei in mice. Type of data set: in vivo, P. berghei (infected mice). An excerpt:
Activity against strains of P. berghei resistant to chloroquine, sulfones, cycloguanil, and pyrimethamine, is shown by the testing of 7-(phenylmethyl)-7H-pyrrolo[3,2-f]quinazoline-1,3-diamine and 7-[(2,5-dimethylphenyl)methyl]-7H-pyrrolo[3,2-f]quinazoline-1,3-diamine in mice against such resistant strains.

The mark [6] stands for this setting: infected mice, highest dose with no deaths for any reason.
[7] abbreviates: Rhesus monkeys, oral, seven days, read-out: CD50 (the source's name).

For orientation: MIC means the least concentration at which growth counts as inhibited. For orientation: LD50 means the dose expected to kill half of the subjects tested. Regarding `Nc1nc(N)c2c(ccc3c2ccn3Cc2ccccc2)n1` [Example 2, 7-(Phenylmethyl)-7H-pyrrolo[3,2-f]quinazoline-1,3-diamine], the MIC with K. pneumoniae 10031 came to 1.95 mg/L (≈ 6.74 µM); in the data set with S. aureus Smith, 1.95 mg/L (≈ 6.74 µM); against N. catarrhalis 8193, 0.061 mg/L (≈ 0.211 µM); in the data set with S. aureus 53-180, 1.95 mg/L (≈ 6.74 µM); against P. vulgaris 6896, 7.81 mg/L (≈ 27 µM); against S. paratyphi 11737, 1.95 mg/L (≈ 6.74 µM). The compound also returned a minimal inhibitory concentration (MIC) in the data set with E. coli 9637 of 1.95 mg/L (≈ 6.74 µM). The ED50 with P. cynomolgi (po, read-out: CD50) stood at 0.1 mg/kg; in the data set on Proteus mirabilis 190 (Proteus mirabilis, 190, po, 336 h, read-out: PD50 (agent alone)), 22.5 mg/kg. Moreover, the response vs control in vivo at 10 mg/kg in [1] came to 149%. The “PD50 SM/Cpd. (compound part)” value in the data set on Proteus mirabilis 190 (mice, p.o., 0 hours, with SM 1.56 mg. per kg., 20160 min) was 7.78 mg. per kg. In addition, in [2] (setting [6]), the MTD was determined as 160 mg/kg. The ED100 in data set [3] (1440 h, s.c., 60-day survivors) came out at 80 mg/kg. The minimal effective dose in data set [3] (this is the lowest dose tested) worked out at 20 mg/kg. Besides, in data set [3] (s.c., 60-day survivors), the “Cure/Treat at Min. Curing Dose” value is recorded as 2/5. Besides, the “ΔMST (increase in mean survival time)” value in data set [3] (s.c., dose 20 mg. per kg.) is 10.9. The duration of effects in the data set on mice (animals having received the highest dose, i.p.) is 14 days; with mice (low dose animals, i.p.), “up to 6 days”. The “signs observed on day 2 post-drug-administration” value in the data set on mice (day 2, i.p. single dose) was “rough coats and decreased fecal elimination”. For the same compound, in the data set with mice (mice alive on day 14), the “necropsy, macroscopic” value is given as “Macroscopically, the tissues appeared normal”. The “time of deaths post-drug-administration” value in the data set on mice (mice, i.p., single dose) lay in the range of 4 to 5 days. The “LD50, 95% confidence limits” value in the data set with mice (mice, i.p., single dose, 14 days) is 48.6 to 93.4 mg/kg. Besides, in the data set on mice (within 1 hour after i.p. injection), the “signs in all mice after i.p. injection” value is “decreased spontaneous motor activity, bradypnea, ptosis, and stretching with indrawn sides in all mice”. Also, the LD50 at 336 h in [4] was determined as 54.5 mg/kg.
For the compound `Cc1ccc(C)c(Cn2ccc3c4c(N)nc(N)nc4ccc32)c1` [Example 23, 7-[(2,5-dimethylphenyl)methyl]-7H-pyrrolo[3,2-f]quinazoline-1,3-diamine], the minimum inhibitory concentration (MIC) against K. pneumoniae 10031 worked out at 1.95 mg/L (≈ 6.14 µM); in the data set with S. aureus Smith, 3.9 mg/L (≈ 12.3 µM); in the data set with N. catarrhalis 8193 it was 0.244 mg/L (≈ 0.769 µM); in the data set on S. aureus 53-180, 0.976 mg/L (≈ 3.08 µM); with P. vulgaris 6896, 250 mg/L (≈ 788 µM); in the data set with S. paratyphi 11737, 125 mg/L (≈ 394 µM). This compound also displayed a minimal inhibitory concentration (MIC) in the data set on E. coli 9637 of 31.3 mg/L (≈ 98.6 µM). Besides, the ED50 with P. cynomolgi (setting [7]) came out at 1 mg/kg. Also, in data set [1] (mice, I.P., 10 mg/kg), the response vs control in vivo at 10 mg/kg was 142%. Moreover, the “Activity against resistant strains” value in data set [5] was “Activity”. The MTD in data set [2] (this is the highest dose tested) came to 640 mg/kg. The ED100 in data set [3] (1440 h, s.c., 60-day survivors) is 40 mg/kg. In addition, the minimal effective dose in data set [3] (1440 h, s.c., 60-day survivors) was 10 mg/kg. Besides, in data set [3] (s.c., 60-day survivors), the “Cure/Treat at Min. Curing Dose” value is given as 3/5. Besides, the “ΔMST (increase in mean survival time)” value in [3] (s.c., dose 5 mg. per kg.) was 7.9.
Consider `COc1ccc(Cn2ccc3c4c(N)nc(N)nc4ccc32)cc1` [Example 34, 7-[(4-methoxyphenyl)methyl]-7H-pyrrolo[3,2-f]quinazoline-1,3-diamine], for which the minimum inhibitory concentration (MIC) against K. pneumoniae 10031 turned out to be 0.061 mg/L (≈ 0.191 µM); against S. aureus Smith it was 0.976 mg/L (≈ 3.06 µM); with N. catarrhalis 8193, 0.0152 mg/L (≈ 0.0476 µM); with S. aureus 53-180 it was 0.244 mg/L (≈ 0.764 µM); with P. vulgaris 6896, 0.976 mg/L (≈ 3.06 µM); in the data set with S. paratyphi 11737 it was 0.976 mg/L (≈ 3.06 µM). It took 0.488 mg/L (≈ 1.53 µM) to inhibit growth against E. coli 9637 (MIC). Further, in the data set with P. cynomolgi (setting [7]), the ED50 was 0.316 mg/kg. Moreover, the MTD in [2] (setting [6]) was determined as 160 mg/kg. Also, the ED100 in [3] (1440 h, s.c., 60-day survivors) amounted to 20 mg/kg. Moreover, the minimal effective dose in data set [3] (1440 h, s.c., 60-day survivors) stood at 5 mg/kg. Also, in data set [3] (s.c., 60-day survivors), the “Cure/Treat at Min. Curing Dose” value is 2/5. In addition, the “ΔMST (increase in mean survival time)” value in data set [3] (s.c., dose 5 mg. per kg.) is on record as 11.2.
